In PubChem BioAssay AID1259407 (Chemical Carcinogenesis Research Information System (CCRIS), 2018):
Active and inactive are the calls of the source. How the calls were made is not given here.

System: CCRIS mutagenicity, Ames/micronucleus/aberration tests
Assay: CCRIS mutagenicity studies

## C1O[C@@H]1[C@@H]1CO1
Test System: AMES SALMONELLA TYPHIMURIUM, Strain/Indicator: TA1535, Metabolic Activation: RAT, LIVER, S-9, Method: PREINCUBATION
  mutagenic call: active; positive
Test System: AMES SALMONELLA TYPHIMURIUM, Strain/Indicator: TA1535, Metabolic Activation: RAT, LIVER, S-9, Method: STANDARD PLATE
  mutagenic call: active; positive
Test System: AMES SALMONELLA TYPHIMURIUM, Strain/Indicator: TA1537, Metabolic Activation: HAMSTER, LIVER, S-9, AROCLOR 1254, Method: PREINCUBATION
  mutagenic call: inactive; negative
Test System: AMES SALMONELLA TYPHIMURIUM, Strain/Indicator: TA1537, Metabolic Activation: HAMSTER, LIVER, S-9, AROCLOR 1254, Method: STANDARD PLATE
  mutagenic call: inactive; negative
Test System: AMES SALMONELLA TYPHIMURIUM, Strain/Indicator: TA1537, Metabolic Activation: HAMSTER, LIVER, S-9, Method: PREINCUBATION
  mutagenic call: inactive; negative
Test System: AMES SALMONELLA TYPHIMURIUM, Strain/Indicator: TA1537, Metabolic Activation: HAMSTER, LIVER, S-9, Method: STANDARD PLATE
  mutagenic call: inactive; negative
Test System: AMES SALMONELLA TYPHIMURIUM, Strain/Indicator: TA1537, Metabolic Activation: MOUSE, LIVER, S-9, AROCLOR 1254, Method: PREINCUBATION
  mutagenic call: inactive; negative
Test System: AMES SALMONELLA TYPHIMURIUM, Strain/Indicator: TA1537, Metabolic Activation: MOUSE, LIVER, S-9, AROCLOR 1254, Method: STANDARD PLATE
  mutagenic call: inactive; negative
Test System: AMES SALMONELLA TYPHIMURIUM, Strain/Indicator: TA1537, Metabolic Activation: MOUSE, LIVER, S-9, Method: PREINCUBATION
  mutagenic call: inactive; negative
Test System: AMES SALMONELLA TYPHIMURIUM, Strain/Indicator: TA1537, Metabolic Activation: MOUSE, LIVER, S-9, Method: STANDARD PLATE
  mutagenic call: inactive; negative
Test System: AMES SALMONELLA TYPHIMURIUM, Strain/Indicator: TA1537, Metabolic Activation: NONE, Method: PREINCUBATION
  mutagenic call: inactive; negative
Test System: AMES SALMONELLA TYPHIMURIUM, Strain/Indicator: TA1537, Metabolic Activation: NONE, Method: STANDARD PLATE
  mutagenic call: inactive; negative
Test System: AMES SALMONELLA TYPHIMURIUM, Strain/Indicator: TA1537, Metabolic Activation: RAT, LIVER, S-9, AROCLOR 1254, Method: PREINCUBATION
  mutagenic call: inactive; negative
Test System: AMES SALMONELLA TYPHIMURIUM, Strain/Indicator: TA1537, Metabolic Activation: RAT, LIVER, S-9, Method: PREINCUBATION
  mutagenic call: inactive; negative
Test System: AMES SALMONELLA TYPHIMURIUM, Strain/Indicator: TA1537, Metabolic Activation: RAT, LIVER, S-9, Method: STANDARD PLATE
  mutagenic call: inactive; negative
Test System: AMES SALMONELLA TYPHIMURIUM, Strain/Indicator: TA1538, Metabolic Activation: HAMSTER, LIVER, S-9, AROCLOR 1254, Method: PREINCUBATION
  mutagenic call: inactive; negative
Test System: AMES SALMONELLA TYPHIMURIUM, Strain/Indicator: TA1538, Metabolic Activation: HAMSTER, LIVER, S-9, AROCLOR 1254, Method: STANDARD PLATE
  mutagenic call: inactive; negative
Test System: AMES SALMONELLA TYPHIMURIUM, Strain/Indicator: TA1538, Metabolic Activation: HAMSTER, LIVER, S-9, Method: PREINCUBATION
  mutagenic call: inactive; negative
Test System: AMES SALMONELLA TYPHIMURIUM, Strain/Indicator: TA1538, Metabolic Activation: HAMSTER, LIVER, S-9, Method: STANDARD PLATE
  mutagenic call: inactive; negative
Test System: AMES SALMONELLA TYPHIMURIUM, Strain/Indicator: TA1538, Metabolic Activation: MOUSE, LIVER, S-9, AROCLOR 1254, Method: PREINCUBATION
  mutagenic call: inactive; negative
Test System: AMES SALMONELLA TYPHIMURIUM, Strain/Indicator: TA1538, Metabolic Activation: MOUSE, LIVER, S-9, AROCLOR 1254, Method: STANDARD PLATE
  mutagenic call: inactive; negative
Test System: AMES SALMONELLA TYPHIMURIUM, Strain/Indicator: TA1538, Metabolic Activation: MOUSE, LIVER, S-9, Method: PREINCUBATION
  mutagenic call: inactive; negative
Test System: AMES SALMONELLA TYPHIMURIUM, Strain/Indicator: TA1538, Metabolic Activation: MOUSE, LIVER, S-9, Method: STANDARD PLATE
  mutagenic call: inactive; negative
Test System: AMES SALMONELLA TYPHIMURIUM, Strain/Indicator: TA1538, Metabolic Activation: NONE, Method: PREINCUBATION
  mutagenic call: inactive; negative
Test System: AMES SALMONELLA TYPHIMURIUM, Strain/Indicator: TA1538, Metabolic Activation: NONE, Method: STANDARD PLATE
  mutagenic call: inactive; negative
Test System: AMES SALMONELLA TYPHIMURIUM, Strain/Indicator: TA1538, Metabolic Activation: RAT, LIVER, S-9, AROCLOR 1254, Method: PREINCUBATION
  mutagenic call: inactive; negative
Test System: AMES SALMONELLA TYPHIMURIUM, Strain/Indicator: TA1538, Metabolic Activation: RAT, LIVER, S-9, Method: PREINCUBATION
  mutagenic call: inactive; negative
Test System: AMES SALMONELLA TYPHIMURIUM, Strain/Indicator: TA1538, Metabolic Activation: RAT, LIVER, S-9, Method: STANDARD PLATE
  mutagenic call: inactive; negative
Test System: E. COLI, Strain/Indicator: WP2 UVRA, Metabolic Activation: HAMSTER, LIVER, S-9, AROCLOR 1254, Method: STANDARD PLATE
  mutagenic call: inactive; negative
Test System: E. COLI, Strain/Indicator: WP2 UVRA, Metabolic Activation: HAMSTER, LIVER, S-9, Method: PREINCUBATION
  mutagenic call: inactive; negative
Test System: E. COLI, Strain/Indicator: WP2 UVRA, Metabolic Activation: MOUSE, LIVER, S-9, AROCLOR 1254, Method: STANDARD PLATE
  mutagenic call: inactive; negative
Test System: E. COLI, Strain/Indicator: WP2 UVRA, Metabolic Activation: MOUSE, LIVER, S-9, Method: STANDARD PLATE
  mutagenic call: inactive; negative
Test System: E. COLI, Strain/Indicator: WP2 UVRA, Metabolic Activation: NONE, Method: STANDARD PLATE
  mutagenic call: inactive; negative
Test System: E. COLI, Strain/Indicator: WP2 UVRA, Metabolic Activation: RAT, LIVER, S-9, AROCLOR 1254, Method: PREINCUBATION
  mutagenic call: inactive; negative
Test System: E. COLI, Strain/Indicator: WP2 UVRA, Metabolic Activation: RAT, LIVER, S-9, Method: PREINCUBATION
  mutagenic call: inactive; negative
Test System: E. COLI, Strain/Indicator: WP2 UVRA, Metabolic Activation: RAT, LIVER, S-9, Method: STANDARD PLATE
  mutagenic call: inactive; negative
